The values that follow come from patent US20150051144A1, “COMPOUNDS FOR THE TREATMENT OF DYSLIPIDEMIA AND OTHER DISEASES” (Cadila Healthcare Limited, priority 2012, published 2015).

The assay addresses PCSK9 (Homo sapiens, UniProt Q8NBP7). As to the kind of experiment: PCSK9-LDLR in vitro Binding Assay (solid phase, ELISA readout). The following applies: for inhibition at 10 µM: test compound concentration 10 μM; for inhibition at 100 µM: test compound concentration 100 μM. The protocol: The PCSK9-LDLR in vitro Binding Assay is a quantitative solid phase binding assay between PCSK9 and recombinant LDLR. Plates were pre-coated with a recombinant LDLR-AB domain, which binds PCSK9. Test compound at different concentration was added to the PCSK9 and added to LDLR immobilized on the wells. The amount of bound PCSK9 is measured by binding it with biotinylated anti-His-tag monoclonal antibody, followed by binding with horseradish peroxidase conjugated streptavidin substrate. The color was quantified by ELISA reader at […] which reflects the relative amount of PCSK9 that binds to LDLR in presence and absence of the inhibitor.
For orientation: An ELISA detects its analyte on a solid surface through an enzyme-linked reagent.

Sequence of PCSK9 (Q8NBP7 153-692): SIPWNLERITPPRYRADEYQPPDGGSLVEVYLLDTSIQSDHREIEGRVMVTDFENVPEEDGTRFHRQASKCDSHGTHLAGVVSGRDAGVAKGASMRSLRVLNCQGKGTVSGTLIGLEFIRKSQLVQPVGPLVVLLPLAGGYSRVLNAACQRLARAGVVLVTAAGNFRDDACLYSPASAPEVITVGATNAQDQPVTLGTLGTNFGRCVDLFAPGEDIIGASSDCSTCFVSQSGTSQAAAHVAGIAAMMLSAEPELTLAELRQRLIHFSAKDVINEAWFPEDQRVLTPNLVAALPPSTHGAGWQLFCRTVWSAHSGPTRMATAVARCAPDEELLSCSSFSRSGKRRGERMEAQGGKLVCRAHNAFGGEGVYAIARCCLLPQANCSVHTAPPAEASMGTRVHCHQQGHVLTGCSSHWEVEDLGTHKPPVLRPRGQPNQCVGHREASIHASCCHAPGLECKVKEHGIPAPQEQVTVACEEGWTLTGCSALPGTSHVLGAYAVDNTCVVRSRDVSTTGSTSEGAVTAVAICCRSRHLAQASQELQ
Sequence of PCSK9 (Q8NBP7 31-152 partner limits assumed): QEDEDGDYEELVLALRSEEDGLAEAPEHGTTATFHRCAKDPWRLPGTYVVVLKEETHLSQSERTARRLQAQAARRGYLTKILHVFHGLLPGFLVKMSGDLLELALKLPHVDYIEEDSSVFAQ

As to `Cc1cc(C(Cc2ccccc2)=NOCc2ccc(C(F)(F)F)cc2)ccc1OCC(=O)N1CCOCC1` [Example 1, 2-(2-Methyl-4-(2-phenyl-1-(((4-(trifluoromethyl)benzyl)oxy)imino)ethyl)phenoxy)-1-morpholinoethanone], at 10 µM the inhibition was 50% and the inhibition at 100 µM was found to be 51%. `Cc1cc(C(Cc2ccccc2)=NOCc2ccc(C(F)(F)F)cc2)ccc1OCC(=O)NCC(=O)N1CCOCC1` [Example 3, 2-(2-Methyl-4-(2-phenyl-1-(((4-(trifluoromethyl)benzyl)oxy)imino)ethyl)phenoxy)-N-(2-morpholino-2-oxoethyl)acetamide] had an inhibition at 10 µM of 32% and an inhibition at 100 µM of 38%. For the compound `O=C(COc1ccc(C(Cc2ccccc2)=NOCc2ccc(C(F)(F)F)cc2)cc1)N1CCOCC1` [Example 4, 1-Morpholino-2-(4-(2-phenyl-1-(((4-(trifluoromethyl)benzyl)oxy)imino)ethyl)phenoxy)ethanone], the inhibition at 10 µM was determined as 31% and the inhibition at 100 µM was 62%.

In the case of `CN1CCN(C(=O)COc2ccc(C(Cc3ccccc3)=NOCc3ccc(C(F)(F)F)cc3)cc2)CC1` [Example 6, 1-(4-Methylpiperazin-1-yl)-2-(4-(2-phenyl-1-(((4-(trifluoromethyl)benzyl)oxy)imino)ethyl)phenoxy)ethanone], at 10 µM the inhibition was 49%.

As to `CC(C)(C)OC(=O)N1CCC(ONC(=O)COc2ccc(C(Cc3ccccc3)=NOCc3ccc(C(F)(F)F)cc3)cc2)CC1` [Example 8, tert-Butyl 4-((2-(4-(2-phenyl-1-(((4-(trifluoromethyl)benzyl)oxy)imino)ethyl)phenoxy)acetamido)oxy)piperidine-1-carboxylate], the inhibition at 10 µM came to 50% and the inhibition at 100 µM is 52%. On the same counts, the results for `O=C(COc1ccc(C(Cc2ccccc2)=NOCc2ccc(C(F)(F)F)cc2)cc1)NN1CCOCC1` [Example 9, N-Morpholino-2-(4-(2-phenyl-1-(((4-(trifluoromethyl)benzyl)oxy)imino)ethyl)phenoxy)acetamide] are 53% and 33%.

Turning to `Cc1cc(C(Cc2ccsc2)=NOCc2ccc(C(F)(F)F)cc2)ccc1OCC(=O)N1CCOCC1` [Example 10, 2-(2-Methyl-4-(2-(thiophen-3-yl)-1-(((4-(trifluoromethyl)benzyl)oxy)imino)ethyl)phenoxy)-1-morpholinoethanone], the inhibition at 10 µM turned out to be 21% and at 100 µM the inhibition was 53%. For `CC(=NOCc1ccc(C(F)(F)F)cc1)c1ccc(OCC(=O)N2CCOCC2)cc1` [Example 11, 1-Morpholino-2-(4-(1-(((4-(trifluoromethyl)benzyl)oxy)imino)ethyl)phenoxy)ethanone], testing at 10 µM gave an inhibition of 26% and the inhibition at 100 µM was 57%.

As for `CCC(=NOCc1ccc(C(F)(F)F)cc1)c1ccc(OCC(=O)N2CCOCC2)cc1` [Example 13, 1-Morpholino-2-(4-(1-(((4-(trifluoromethyl)benzyl)oxy)imino)propyl)phenoxy)ethanone], at 10 µM the inhibition was 52% and the inhibition at 100 µM is 54%.

Compound `CCC(=NOCc1ccc(C(F)(F)F)cc1)c1ccc(OCC(=O)N2CCCCC2)cc1` [Example 15, 1-(Piperidin-1-yl)-2-(4-(1-(((4-(trifluoromethyl)benzyl)oxy)imino)propyl)phenoxy)ethanone] displayed an inhibition at 10 µM of 32% and an inhibition at 100 µM of 64%. `CCC(=NOCc1ccc(C(F)(F)F)cc1)c1ccc(OCC(=O)N(CCO)c2ccccc2)cc1` [Example 20, N-(2-Hydroxyethyl)-N-phenyl-2-(4-(1-(((4-(trifluoromethyl)benzyl)oxy)imino)propyl)phenoxy)acetamide] had an inhibition at 10 µM of 20% and an inhibition at 100 µM of 54%. Compound `CCC(=NOCc1ccc(C(F)(F)F)cc1)c1ccc(OCC(=O)Nc2cc(C)nn2C)cc1` [Example 22, N-(1,3-Dimethyl-1H-pyrazol-5-yl)-2-(4-(1-(((4-(trifluoromethyl)benzyl)oxy)imino)propyl)phenoxy)acetamide] displayed an inhibition at 10 µM of 35% and an inhibition at 100 µM of 60%. In the same order, the values of `O=C(COc1ccc(C(Cc2ccccc2)=NOCc2ccccc2)cc1)N1CCOCC1` [Example 25, 2-(4-(1-((Benzyloxy)imino)-2-phenylethyl)phenoxy)-1-morpholinoethanone] are 27% and 40%. In the same order, the values of `Cc1ccc(CON=C(Cc2ccccc2)c2ccc(OCC(=O)N3CCOCC3)c(C)c2)cc1` [Example 26, 2-(2-Methyl-4-(1-(((4-methylbenzyl)oxy)imino)-2-phenylethyl)phenoxy)-1-morpholinoethanone] are 32% and 44%. In the same order, the values of `Cc1cc(C(Cc2ccccc2)=NOCc2ccc(OC(F)(F)F)cc2)ccc1OCC(=O)N1CCOCC1` [Example 34, 2-(2-methyl-4-(2-phenyl-1-(((4-(trifluoromethoxy)benzyl)oxy)imino)ethyl)phenoxy)-1-morpholinoethanone] are 25% and 46%. Compound `O=C(COc1ccc(C(Cc2ccccc2)=NOCc2ccc(OC(F)(F)F)cc2)cc1)N1CCOCC1` [Example 35, 1-morpholino-2-(4-(2-phenyl-1-(((4-(trifluoromethoxy)benzyl)oxy)imino)ethyl)phenoxy)ethanone] yielded an inhibition at 10 µM of 26% and an inhibition at 100 µM of 42%. `COc1ccc(CON=C(Cc2ccccc2)c2ccc(OCC(=O)N3CCOCC3)c(C)c2)cc1` [Example 36, 2-(4-(1-(((4-methoxybenzyl)oxy)imino)-2-phenylethyl)-2-methylphenoxy)-1-morpholinoethanone] showed an inhibition at 10 µM of 22% and an inhibition at 100 µM of 40%. On the same counts, the results for `COc1ccc(CON=C(Cc2ccccc2)c2ccc(OCC(=O)N3CCCCC3)c(C)c2)cc1` [Example 40, 2-(4-(1-(((4-methoxybenzyl)oxy)imino)-2-phenylethyl)-2-methylphenoxy)-1-(piperidin-1-yl)ethanone] are 24% and 50%. `CCC(=NOCCn1ccc2ccccc21)c1ccc(OCC(=O)N2CCN(C)CC2)cc1` [Example 46, 2-(4-(1-((2-(1H-indol-1-yl)ethoxy)imino)propyl)phenoxy)-1-(4-methylpiperazin-1-yl)ethanone] displayed an inhibition at 10 µM of 27% and an inhibition at 100 µM of 59%. In the case of `CCC(=NOCc1nc(-c2ccccc2)oc1C)c1ccc(OCC(=O)N2CCN(C)CC2)cc1` [Example 50, 2-(4-(1-(((5-methyl-2-phenyloxazol-4-yl)methoxy)imino)propyl)phenoxy)-1-(4-methylpiperazin-1-yl)ethanone], testing at 10 µM gave an inhibition of 22% and the inhibition at 100 µM was found to be 42%. On the same counts, the results for `O=C(COc1ccc2c(c1)CCCC2=NOCc1ccc(C(F)(F)F)cc1)N1CCCCC1` [Example 54, 1-(piperidin-1-yl)-2-((5-(((4-(trifluoromethyl)benzyl)oxy)imino)-5,6,7,8-tetrahydronaphthalen-2-yl)oxy)ethanone] are 40% and 62%. In the same order, the values of `CN1CCN(C(=O)COc2ccc3c(c2)CCCC3=NOCc2ccc(C(F)(F)F)cc2)CC1` [Example 56, 1-(4-methylpiperazin-1-yl)-2-((5-(((4-(trifluoromethyl)benzyl)oxy)imino)-5,6,7,8-tetrahydronaphthalen-2-yl)oxy)ethanone] are 63% and 66%. Take `O=C(COc1ccc2c(c1)CCCC2=NOCc1ccc(C(F)(F)F)cc1)NN1CCOCC1` [Example 57, N-morpholino-2-((5-(((4-(trifluoromethyl)benzyl)oxy)imino)-5,6,7,8-tetrahydronaphthalen-2-yl)oxy)acetamide]: the inhibition at 10 µM is 50% and the inhibition at 100 µM stood at 59%. `O=C(COc1ccc2c(c1)CCCC2=NOCc1ccc(C(F)(F)F)cc1)NN1CCCCC1` [Example 58, N-(piperidin-1-yl)-2-((5-(((4-(trifluoromethyl)benzyl)oxy)imino)-5,6,7,8-tetrahydronaphthalen-2-yl)oxy)acetamide] gave an inhibition at 10 µM of 50% and an inhibition at 100 µM of 53%. In turn, `O=C(COc1ccc2c(c1)CCCC2=NOCc1ccc(C(F)(F)F)cc1)Nc1nc2cc(Cl)ccc2o1` [Example 59, N-(5-chlorobenzo[d]oxazol-2-yl)-2-((5-(((4-(trifluoromethyl)benzyl)oxy)imino)-5,6,7,8-tetrahydronaphthalen-2-yl)oxy)acetamide] displayed an inhibition at 10 µM of 49% and an inhibition at 100 µM of 79%. On the same counts, the results for `Cc1ccnc(NC(=O)COc2ccc3c(c2)CCCC3=NOCc2ccc(C(F)(F)F)cc2)n1` [Example 60, N-(4-methylpyrimidin-2-yl)-2-((5-(((4-(trifluoromethyl)benzyl)oxy)imino)-5,6,7,8-tetrahydronaphthalen-2-yl)oxy)acetamide] are 61% and 91%. In turn, `CC(C)(C)OC(=O)N1CCC(ONC(=O)COc2ccc3c(c2)CCCC3=NOCc2ccc(C(F)(F)F)cc2)CC1` [Example 62, tert-butyl 4-((2-((5-(((4-(trifluoromethyl)benzyl)oxy)imino)-5,6,7,8-tetrahydronaphthalen-2-yl)oxy)acetamido)oxy)piperidine-1-carboxylate] gave an inhibition at 10 µM of 57% and an inhibition at 100 µM of 73%.

`[C-]#[N+]c1ccccc1NC(=O)COc1ccc2c(c1)CCCC2=NOCc1ccc(C(F)(F)F)cc1` [Example 63, N-(2-isocyanophenyl)-2-((5-(((4-(trifluoromethyl)benzyl)oxy)imino)-5,6,7,8-tetrahydronaphthalen-2-yl)oxy)acetamide] registered an inhibition at 10 µM of 48% and an inhibition at 100 µM of 58%.

As a reminder, the inhibition is the relative decrease from the control value, in per cent.
